Columns and labels:
[1] = system: Escherichia coli (ATCC 25922); experiment: MBEC P&G assay in dilutions of mucin; type: cell-based
Protocol: (§1) The effects of silver (III) periodate and silver nitrate in different dilutions of mucin (2.0%, 1.0%, 0.5%, 0.25%, 0.12%, 0.06%) were tested using the MBEC™ P&G assay against Escherichia coli (ATCC 25922)The challenge time was 4 hours. The tested concentration range for both silver compounds was 500 to 7.8 ppm.

[2] = system: bacterial canker (Clavibacter michiganensis pv. michiganensis); experiment: Field trial, foliar spray against bacterial canker in tomatoes (Example 19); type: in vivo, tomatoes (Lycopersicon esculentum)
Protocol: Silver (III) periodate was tested as a bactericidal foliar spray treatment against bacterial canker (Clavibacter michiganensis pv. michiganensis) in tomatoes (Lycopersicon esculentum).
See Example 18 for Preparation of Tomato Seed; Preparation of Field; Seeding; Plot Maintenance; Preparation of Spray Treatment Solutions and Inoculum; Spray Treatment Procedure; and Data Collection.

[3] = system: Escherichia coli (ATCC 25922); experiment: MBEC P&G assay in dilutions of urine; type: cell-based
Protocol: as §1, with “urine (0.001%, 0.01%, 0.1%, 1%, 10%, 50%)” for “mucin (2.0%, 1.0%, 0.5%, 0.25%, 0.12%, 0.06%) were tested”, “assay were tested” for “assay”

[4] = system: P. aeruginosa ATCC 27853; experiment: Silver (III) periodate efficacy testing in the presence of Cl-, SO4 2-, and PO4 3-; type: cell-based; conditions: water, 1% NaCl, 1% K2SO4 and 1% K2HPO4 solutions; challenge time 30 minutes; tested 1.5-200 ppm
Protocol: Silver (III) periodate was tested for efficacy in water, 1% NaCl, 1% K2SO4, and 1% K2HPO4 solutions, and compared with silver nitrate. The test solutions were tested against P. aeruginosa ATCC 27853. The challenge time was 30 minutes. Silver (III) periodate and silver nitrate were tested at range of 1.5-200 ppm.

[5] = system: relevant clinical pathogens in biofilm form (Pseudomonas aeruginosa, MRSA, MRSE, Acinetobacter baumanii, Listeria monocytogenes, VRE, Escherichia coli, Candida …); experiment: MBEC efficacy testing against relevant clinical pathogens in saline; type: cell-based; conditions: challenge time 4 hours, 2000 ppm to 15.62 ppm
Protocol: The antimicrobial effect of silver (III) periodate and silver nitrate (2000 ppm to 15.62 ppm) in saline was tested against Pseudomonas aeruginosa, Staphylococcus aureus (MRSA), Staphylococcus epidermidis (MRSE), Acinetobacter baumanii, Listeria monocytogenes, Enterococcus faecalis (VRE), Escherichia coli, Candida albicans, Klebsiella pneumonia, Enterobacter aerongenes. The challenge time was 4 hours.

[6] = system: bacterial speck (Pseudomonas syringae pv. tomato); experiment: Field trial, foliar spray against bacterial speck in tomatoes (Example 18); type: in vivo, tomatoes (Lycopersicon esculentum); conditions: after three treatment sprays
[7] = system: Candida albicans ATCC 28367; experiment: MBEC P&G assay in dilutions of human serum; type: cell-based
Protocol: (§2) The effects of silver (III) periodate and silver nitrate were tested in different dilutions of human serum (0.001%, 0.01%, 0.1%, 1%, 10%, 50%) using the MBECTM P&G assay against relevant clinical human pathogens Escherichia coli, Staphylococcus aureus (MRSA), and Candida albicans. The challenge time was 4 hours. The tested concentration range for the silver compounds was 500 to 7.8 ppm.

[8] = system: Escherichia coli ATCC 25922; experiment: MBEC P&G assay in dilutions of human serum; type: cell-based
Protocol: as §2

[9] = system: Staphylococcus aureus (MRSA) 456; experiment: MBEC P&G assay in dilutions of human serum; type: cell-based
Protocol: as §2

[10] = system: downy mildew (Peronospora paratsitica Lui); experiment: Field trial, foliar spray against downy mildew (Example 24); type: in vivo; conditions: compared with the check
Protocol: (§3) Silver (III) periodate was tested as a fungicidal foliar spray treatment against alternaria leaf blight (Alternaria brassicicola) and downy mildew (Peronospora paratsitica Lui) in cauliflower (Brassica oleracea var. botrytis) and broccoli (Brassica oleracea […]), respectively.
See Example 23 for Preparation of Tomato Seed; Preparation of Field; Seeding; Plot Maintenance; Preparation of Spray Treatment Solutions and Inoculum; Spray Treatment Procedure; and Data Collection.

[11] = system: Escherichia coli (ATCC 25922); experiment: MBEC P&G assay in dilutions of feces; type: cell-based
Protocol: The challenge time was 4 hours. The tested concentration range for both silver compounds was 500 to 7.8 ppm.

[12] = system: alternaria leaf blight (Alternaria brassicicola); experiment: Field trial, foliar spray against alternaria leaf blight in cauliflower and broccoli (Example 23); type: in vivo
Protocol: as §3
Preparation of Seed, Preparation of Field, Seeding, Plot Maintenance: Two trials were conducted in organic soil (pH ≈7.2, organic matter ≈47.2%). Cauliflower and broccoli were seeded into 128-cell Plastomer plug trays in early June and hand transplanted in early July in two rows, 86 cm apart and 9 meter in length, with an in-row spacing of 40 cm. A randomized complete block arrangement with four replicates per treatment was used. Treatments were applied in July and August using a CO2 backpack sprayer equipped with 4 TeeJet D-2 hollow cone nozzles spaced 40 cm apart and calibrated to deliver 250 L/ha at 240 kPa.
This was immediately followed by irrigation to achieve leaf wetness. The plots were treated prior to inoculation.
Preparation of Spray Treatment Solutions and Inoculum: The treatment rate for silver (III) periodate was 0.16 kg/ha. It was also combined (at this rate) with Bravo, which was delivered at 2.5L/ha.
Data Collection: Plants were monitored weekly to determine when lesions were first observed. Plants (15 per rep, randomly selected and marked for continued assessment) were assessed twice during the growing season for number of lesions per leaf. As heads mature, 15 heads per rep in total were harvested and assessed from each experimental unit. The number of Alternaria le sions per leaf were counted. Healthy leaves were counted and trimmed head weights were recorded to indicate marketable yield.
Treatments compared were oxysilver nitrate, silver (III) periodate, Bravo, Bravo+oxysilver nitrate, Bravo+silver (III) periodate, and water (control).

[13] = system: bacterial speck; experiment: Field trial, foliar spray against bacterial speck in tomato (Example 22); type: in vivo; conditions: compared with the standard Kocide and Kocide+Dithane
Protocol: Silver (III) periodate was tested as a foliar spray treatment fungicide against bacterial speck in tomato.
See Example 22 for Preparation of Tomato Seed; Preparation of Field; Seeding; Plot Maintenance; Preparation of Spray Treatment Solutions and Inoculum; Spray Treatment Procedure; and Data Collection.
The treatments compared were water (control), oxysilver nitrate, silver (III) periodate, Dithane, Kocide 2000, Dithane DG 75+Kocide 2000, oxysilver nitrate+Dithane, and silver (III) periodate+Dithane, Serenade Max, and Serenade Max+oxysilver nitrate.

[Ag+3].[Na+].[Na+].[Na+].[Na+].[Na+].[O-][I+]([O-])([O-])([O-])([O-])O.[O-][I+]([O-])([O-])([O-])([O-])O [silver (III) periodate, sodium diperiodatoargentate]
log reduction, trend with compound concentration ([1]; higher concentrations of mucin): log reduction decreased with a decrease in concentration of silver (III) periodate | effectiveness compared with the other compound ([1]; higher concentrations of mucin (2% and 1%)): more effective than silver nitrate | log reduction, trend with compound concentration ([1]; lower concentrations of mucin (0.25%, 0.12% and 0.06%)): log reduction was relatively unaffected by the changes in concentration | effectiveness compared with the other compound ([1]; mucin 0.5%, 0.25%, 0.12% and 0.06%, lower compound concentrations): more effective than the lower tested concentrations of silver nitrate | disease severity on foliage ([2]; after three treatment sprays): best at reducing disease severity on foliage | disease severity on foliage ([2]; after two treatment sprays): best at reducing disease severity on foliage | MBC cut-off point ([3]; 10% urine): 31.25 ppm | MBC cut-off point ([3]; 100% urine): 250 ppm | log reduction ([3]; 500 and 250 ppm, all tested concentrations of urine): approximately equal log reductions | log reduction compared with the other compound ([3]; compound concentrations of 125 ppm and below): larger log reduction at the lower and middle concentrations | compound concentration giving the highest log reduction ([3]; concentrations at 125 ppm and below, urine): 62.5 ppm | effective concentration [4]: 1.73 ppm | MBEC (minimum biofilm eradication concentration) killing activity [5]: higher killing activity than silver nitrate against most of the tested strains | disease severity on foliage [6]: best at reducing disease severity on foliage | log reduction ([7]; 0.1%, 0.01%, 0.001% human serum, concentrations higher than 125 ppm): higher log reductions | log reduction ([7]; 10% and 1% human serum, 31.25-125 ppm): Log reductions were higher | log reduction compared with silver nitrate ([8]; 0.1% and 0.01% human serum, low tested concentrations): lower log reduction than silver nitrate | difference in log reduction over silver nitrate ([8]; 50% and 10% human serum, even at concentrations as low as 7.8 ppm): 1.5-2.0 log reduction | log reduction, trend with compound concentration ([8]; human serum dilutions, in general, 4 hours, 500 to 7.8 ppm): log reductions decreased with the decrease in concentrations of silver (III) periodate | log reduction compared with the other compound ([9]; 0.001% human serum, 31.25-125 ppm): higher log reductions | killing activity ([9]; 0.1% and 0.01% human serum): no significant killing activity | killing activity, silver (III) periodate vs silver nitrate ([9]; high concentrations of human serum): no significant differences | downy mildew severity indexes [10]: significantly lower downy mildew severity indexes than the check | MBC, effective level ([11]; 1.56% feces): > 15.6 ppm | MBEC, effective level ([11]; 1.56% feces): 125 ppm | MBC, effective level ([11]; 3.13% feces): > 31.25 ppm | MBEC, effective level ([11]; 3.13% feces): 250 ppm | MBC, effective level ([11]; 6.25% feces): > 62.5 ppm | MBEC, effective level ([11]; 6.25% feces): 125 ppm | MBC, effective level ([11]; 12.5% feces): > 62.5 ppm | MBC, effective level ([11]; 25% feces): higher than 125 ppm | MBC, effective level ([11]; 50% feces): higher than 125 ppm | MBEC, effective level ([11]; concentrations of feces higher than 12.5%, ineffective at highest tested concentration): > 500 ppm | harvest weights ([12]; broccoli): higher harvest weights (not significant) | Alternaria lesions per leaf ([12]; compared with the check, broccoli): significantly lower Alternaria lesions per leaf than the check | Alternaria lesions per leaf ([12]; second result paragraph, crop not given): higher Alternaria lesions per leaf than the check and other treatments | levels of bacterial speck (number of infected leaves) or disease severity ratings [13]: did not have statistically different levels

From patent US20120328713A1, “Articles of Manufacture with Improved Anti-microbial Properties” (priority 2009, published 2012)
